Measurements reported in PMC8969299 (Chemical Engineering Journal, 2022).

How the values were obtained:
[1] = system: SARS-CoV-2; experiment: Fluorescence detection of SARS-CoV-2 in biofluids; conditions: 10% nasal fluid and 10% saliva; n = 3; Fig. 5
[2] = system: influenza B virus; experiment: Fluorescence response of COVID19-PEB to influenza B virus; parameters: species or system influenza B viruses (Victoria Brisbane/20/2009); conditions: COVID 19-PEB 10 nmol in 100 µL; 25 °C; n = 3; Fig. 4e
[3] = system: SARS-CoV-2; experiment: Detection of SARS-CoV-2 in clinical patient samples using COVID19-PEB
[4] = system: influenza A virus; experiment: Fluorescence response of COVID19-PEB to influenza A virus; parameters: species or system influenza A (pH1N1) virus (Human/Canada/2009); conditions: COVID 19-PEB 10 nmol in 100 µL; 25 °C; n = 3; Fig. 4d
[5] = system: SARS-CoV-2; experiment: Fluorescence
[6] = Fluorescence lifetime of COVID19-PEB before/after annealing; format: physicochemical; conditions: before annealing; Oligo-Cy3 and Oligo-BHQ2 fixed at 10 nmol; Fig. 3c
[7] = target: SARS-CoV-2 S protein RBD (Severe acute respiratory syndrome coronavirus 2, UniProt P0DTC2)
[8] = system: HCoV-OC43; experiment: Fluorescence response of COVID19-PEB to HCoV-OC43; parameters: species or system Human coronavirus OC43 (HCoV-OC43); conditions: COVID 19-PEB 10 nmol in 100 µL; 25 °C; n = 3; Fig. 4f
[9] = system: SARS-CoV-2 and its variants

Cy3-TTTTGGGGG- I EEQA KTFL DKFN HEAE DLFY QSSL ASWK-CCCCCAAAA-BHQ2 [COVID19-PEB]
detection of SARS-CoV-2 in biofluid [1]: efficiently detected SARS-CoV-2 in the biofluid, with high sensitivity
change in fluorescence signal, influenza B virus [2]: no change in fluorescence signal was observed
detection of virus in PCR-confirmed patient samples [3]: accurately detected the virus
change in fluorescence signal, influenza A virus [4]: no change in fluorescence signal was observed
detection time, SARS-CoV-2 ([5]; COVID19-PEB): ≤ 3 h
detection time, SARS-CoV-2 (shortest stated) ([5]; COVID19-PEB): ≤ 50 min
time within which intensity change could be measured, SARS-CoV-2 ([5]; COVID 19-PEB 10 nmol, Fig. S4): ≤ 1 h
detection limit, SARS-CoV-2 ([5]; COVID19-PEB fluorescence, 100 µL test): 4 × 10^3 plaque-forming unit/test
fluorescence lifetime [6]: 2.23 ± 0.02 ns
fluorescence intensity with increasing concentration of S proteins [7]: gradually increased with the increasing concentration of the S proteins
time within which intensity change could be measured, S protein RBD [7]: ≤ 1 h
change in fluorescence signal, HCoV-OC43 [8]: no change in fluorescence signal was observed
discrimination among genetic mutations in SARS-CoV-2 [9]: does not effectively discriminate among the genetic mutations in SARS-CoV-2
detection of SARS-CoV-2 and its variants ([9]; Fig. S5): useful for sensitive and rapid detection of SARS-CoV-2 and its variants
